According to PubChem BioAssay AID1963980 (Molecular Pharmacology Branch, DTP, NCI, 2024):

System: 475296-252-R-J1-PDC spheroid viability
Test: Anticancer human tumor 475296-252-R-J1-PDC patient-derived rectal carcinoma cell line growth inhibition [PI3K]
Details: spheroids with HUVEC and MSC; for IC50: curve of first compound; for viability, T/C: stronger effect = lower value
Summary of the method: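 Spheroid viability read-out. Co-cultures contained the tumor line plus HUVEC and human MSCs. Each agent was paired with a PI3K inhibitor (inavolisib, alpelisib, duvelisib, copanlisib) across half-log dilutions starting at clinical Cmax, or at 10 microM when Cmax was unknown.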

[1] = second compound 0.0316 µM, first compound 0.0316 µM
[2] = second compound 0.0316 µM, first compound 0.1 µM
[3] = second compound 0.1 µM, first compound 0.0316 µM
[4] = second compound 0.1 µM, first compound 0.1 µM
[5] = second compound 0.316 µM, first compound 0.0316 µM
[6] = second compound 0.316 µM, first compound 0.1 µM
[7] = second compound 1 µM, first compound 0.0316 µM
[8] = second compound 1 µM, first compound 0.1 µM
[9] = second compound 3.16 µM, first compound 0.0316 µM
[10] = second compound 3.16 µM, first compound 0.1 µM
[11] = second compound 10 µM, first compound 0.0316 µM
[12] = second compound 10 µM, first compound 0.1 µM
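Also: spheroids exposed to agents for seven days before readout.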

Question: What does the source list for `Cn1ncnc1[C@H]1c2n[nH]c(=O)c3cc(F)cc(c23)N[C@@H]1c1ccc(F)cc1` + CC(Nc1ncnc2nc[nH]c12)c1cc2cccc(Cl)c2c(=O)n1-c1ccccc1?
Answer: IC50 (second compound 0.0316 µM): > 0.1 µM; IC50 (second compound 0.1 µM): > 0.1 µM; IC50 (second compound 0.316 µM): > 0.1 µM; IC50 (second compound 1 µM): > 0.1 µM; IC50 (second compound 3.16 µM): > 0.1 µM; IC50 (second compound 10 µM): > 0.1 µM; viability, T/C (second compound 0.0316 µM, first compound 0.000316 µM): 94.1%; viability, T/C (second compound 0.0316 µM, first compound 0.001 µM): 94.3%; viability, T/C (second compound 0.0316 µM, first compound 0.00316 µM): 87.4%; viability, T/C (second compound 0.0316 µM, first compound 0.01 µM): 90.7%; viability, T/C [1]: 107%; viability, T/C [2]: 96.8%; viability, T/C (second compound 0.1 µM, first compound 0.000316 µM): 96.5%; viability, T/C (second compound 0.1 µM, first compound 0.001 µM): 87.5%; viability, T/C (second compound 0.1 µM, first compound 0.00316 µM): 96.8%; viability, T/C (second compound 0.1 µM, first compound 0.01 µM): 91.6%; viability, T/C [3]: 95.7%; viability, T/C [4]: 88.9%; viability, T/C (second compound 0.316 µM, first compound 0.000316 µM): 91%; viability, T/C (second compound 0.316 µM, first compound 0.001 µM): 85.8%; viability, T/C (second compound 0.316 µM, first compound 0.00316 µM): 98.9%; viability, T/C (second compound 0.316 µM, first compound 0.01 µM): 99.5%; viability, T/C [5]: 102%; viability, T/C [6]: 106%; viability, T/C (second compound 1 µM, first compound 0.000316 µM): 85.8%; viability, T/C (second compound 1 µM, first compound 0.001 µM): 103%; viability, T/C (second compound 1 µM, first compound 0.00316 µM): 104%; viability, T/C (second compound 1 µM, first compound 0.01 µM): 103%; viability, T/C [7]: 112%; viability, T/C [8]: 92.7%; viability, T/C (second compound 3.16 µM, first compound 0.000316 µM): 89.7%; viability, T/C (second compound 3.16 µM, first compound 0.001 µM): 86%; viability, T/C (second compound 3.16 µM, first compound 0.00316 µM): 91%; viability, T/C (second compound 3.16 µM, first compound 0.01 µM): 80.7%; viability, T/C [9]: 90.1%; viability, T/C [10]: 89.8%; viability, T/C (second compound 10 µM, first compound 0.000316 µM): 97%; viability, T/C (second compound 10 µM, first compound 0.001 µM): 85%; viability, T/C (second compound 10 µM, first compound 0.00316 µM): 85.4%; viability, T/C (second compound 10 µM, first compound 0.01 µM): 90.7%; viability, T/C [11]: 95.2%; viability, T/C [12]: 83.7%

Question: Which IC50 (second compound 0.0316 µM) does the source give for `CC(C)NCC(C(=O)N1CCN(c2ncnc3c2C(C)CC3O)CC1)c1ccc(Cl)cc1` (centres undefined) + Cc1nc(NC(=O)N2CCCC2C(N)=O)sc1-c1ccnc(C(C)(C)C(F)(F)F)c1 here?
Answer: > 10 µM

Question: And the IC50 (second compound 0.1 µM)?
Answer: > 10 µM

Question: And the IC50 (second compound 0.316 µM)?
Answer: > 10 µM

Question: What about the IC50 (second compound 1 µM) of the same molecule?
Answer: > 10 µM

Question: And the IC50 (second compound 3.16 µM)?
Answer: > 10 µM

Question: And the IC50 (second compound 10 µM)?
Answer: > 10 µM

Question: What about the viability, T/C [1] of the same molecule?
Answer: 98%

Question: And the viability, T/C [2]?
Answer: 90.3%

Question: What about the viability, T/C (second compound 0.0316 µM, first compound 0.316 µM) of the same molecule?
Answer: 92%

Question: And the viability, T/C (second compound 0.0316 µM, first compound 1 µM)?
Answer: 89.3%

Question: And the viability, T/C (second compound 0.0316 µM, first compound 3.16 µM)?
Answer: 78.9%

Question: What about the viability, T/C (second compound 0.0316 µM, first compound 10 µM) of the same molecule?
Answer: 70.3%

Question: And the viability, T/C [3]?
Answer: 89.4%

Question: And the viability, T/C [4]?
Answer: 93.3%

Question: And the viability, T/C (second compound 0.1 µM, first compound 0.316 µM)?
Answer: 92.7%

Question: And the viability, T/C (second compound 0.1 µM, first compound 1 µM)?
Answer: 80.3%

Question: What about the viability, T/C (second compound 0.1 µM, first compound 3.16 µM) of the same molecule?
Answer: 62.4%

Question: And the viability, T/C (second compound 0.1 µM, first compound 10 µM)?
Answer: 58.2%

Question: And the viability, T/C [5]?
Answer: 93.2%

Question: And the viability, T/C [6]?
Answer: 95.1%

Question: And the viability, T/C (second compound 0.316 µM, first compound 0.316 µM)?
Answer: 88.3%

Question: And the viability, T/C (second compound 0.316 µM, first compound 1 µM)?
Answer: 92.5%

Question: What about the viability, T/C (second compound 0.316 µM, first compound 3.16 µM) of the same molecule?
Answer: 68.3%

Question: What about the viability, T/C (second compound 0.316 µM, first compound 10 µM) of the same molecule?
Answer: 58.9%

Question: And the viability, T/C [7]?
Answer: 85%

Question: What about the viability, T/C [8] of the same molecule?
Answer: 92.7%

Question: And the viability, T/C (second compound 1 µM, first compound 0.316 µM)?
Answer: 88.2%

Question: What about the viability, T/C (second compound 1 µM, first compound 1 µM) of the same molecule?
Answer: 90%

Question: What about the viability, T/C (second compound 1 µM, first compound 3.16 µM) of the same molecule?
Answer: 81.3%

Question: What about the viability, T/C (second compound 1 µM, first compound 10 µM) of the same molecule?
Answer: 58.7%

Question: And the viability, T/C [9]?
Answer: 82.5%

Question: And the viability, T/C [10]?
Answer: 96.6%

Question: And the viability, T/C (second compound 3.16 µM, first compound 0.316 µM)?
Answer: 88.8%

Question: And the viability, T/C (second compound 3.16 µM, first compound 1 µM)?
Answer: 89.4%

Question: What about the viability, T/C (second compound 3.16 µM, first compound 3.16 µM) of the same molecule?
Answer: 77.7%

Question: And the viability, T/C (second compound 3.16 µM, first compound 10 µM)?
Answer: 65.8%

Question: What about the viability, T/C [11] of the same molecule?
Answer: 96%

Question: And the viability, T/C [12]?
Answer: 81.3%

Question: And the viability, T/C (second compound 10 µM, first compound 0.316 µM)?
Answer: 89.3%

Question: What about the viability, T/C (second compound 10 µM, first compound 1 µM) of the same molecule?
Answer: 85%

Question: What about the viability, T/C (second compound 10 µM, first compound 3.16 µM) of the same molecule?
Answer: 77.2%

Question: And the viability, T/C (second compound 10 µM, first compound 10 µM)?
Answer: 64.3%
